The supplement of paper PMC10307832

Columns and labels:
Assay in all cases: relative viability (nuclei count vs DMSO), 5 days (fraction); higher = more cells survive
A549 = system: A549
Outline: (§1)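 Lung cancer cell lines in 1536-well plates got either a single drug or a fixed anchor-drug dose together with five library-drug doses (not always all listed) in √10 steps, by pin tool, on the day after seeding. Nuclei were counted after 5 days, and relative viability is the treated-to-vehicle ratio of nuclei counts. Values are medians of duplicate plates.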

Calu-6 = system: Calu-6
Outline: as §1

EBC-1 = system: EBC-1
Outline: as §1

HCC-78 = system: HCC-78
Outline: as §1

IA-LM = system: IA-LM
Outline: as §1

NCI-H1299 = system: NCI-H1299
Outline: as §1

NCI-H1703 = system: NCI-H1703
Outline: as §1

NCI-H2009 = system: NCI-H2009
Outline: as §1

NCI-H460 = system: NCI-H460
Outline: as §1

NCI-H661 = system: NCI-H661
Outline: as §1

COc1nc(C)cnc1NS(=O)(=O)c1cccnc1-c1ccc(-c2nnco2)cc1 [Zibotentan] + C[C@]1(O)C[C@@H](c2nc(-c3ccc4ccc(-c5ccccc5)nc4c3)c3c(N)nccn32)C1 [Linsitinib] (partner 1 µM)
relative viability (A549; first compound 0.08 µM): 0.578 | relative viability (A549; first compound 0.253 µM): 0.539 | relative viability (A549; first compound 0.8 µM): 0.589 | relative viability (A549; first compound 2.53 µM): 0.642 | relative viability (Calu-6; first compound 0.08 µM): 0.996 | relative viability (Calu-6; first compound 0.253 µM): 0.885 | relative viability (Calu-6; first compound 0.8 µM): 0.966 | relative viability (Calu-6; first compound 2.53 µM): 0.922 | relative viability (EBC-1; first compound 0.08 µM): 0.816 | relative viability (EBC-1; first compound 0.253 µM): 0.986 | relative viability (EBC-1; first compound 0.8 µM): 0.934 | relative viability (EBC-1; first compound 2.53 µM): 0.915 | relative viability (HCC-78; first compound 0.08 µM): 0.548 | relative viability (HCC-78; first compound 0.253 µM): 0.503 | relative viability (HCC-78; first compound 0.8 µM): 0.411 | relative viability (HCC-78; first compound 2.53 µM): 0.49 | relative viability (IA-LM; first compound 0.08 µM): 0.627 | relative viability (IA-LM; first compound 0.253 µM): 0.743 | relative viability (IA-LM; first compound 0.8 µM): 0.778 | relative viability (IA-LM; first compound 2.53 µM): 0.456 | relative viability (NCI-H1299; first compound 0.08 µM): 0.938 | relative viability (NCI-H1299; first compound 0.253 µM): 1.01 | relative viability (NCI-H1299; first compound 0.8 µM): 0.984 | relative viability (NCI-H1299; first compound 2.53 µM): 0.987 | relative viability (NCI-H1703; first compound 0.08 µM): 0.655 | relative viability (NCI-H1703; first compound 0.253 µM): 0.718 | relative viability (NCI-H1703; first compound 0.8 µM): 0.865 | relative viability (NCI-H1703; first compound 2.53 µM): 0.167 | relative viability (NCI-H2009; first compound 0.08 µM): 1.14 | relative viability (NCI-H2009; first compound 0.253 µM): 1.05 | relative viability (NCI-H2009; first compound 0.8 µM): 1.2 | relative viability (NCI-H2009; first compound 2.53 µM): 1.22 | relative viability (NCI-H460; first compound 0.08 µM): 0.789 | relative viability (NCI-H460; first compound 0.8 µM): 0.803 | relative viability (NCI-H460; first compound 2.53 µM): 0.742 | relative viability (NCI-H661; first compound 0.08 µM): 0.545 | relative viability (NCI-H661; first compound 0.253 µM): 0.486 | relative viability (NCI-H661; first compound 0.8 µM): 0.518 | relative viability (NCI-H661; first compound 2.53 µM): 0.68

O=c1cc(-c2cccc3c2Sc2ccccc2S3)oc(N2CCOCC2)c1 + CS(=O)(=O)CCNCc1ccc(-c2ccc3ncnc(Nc4ccc(OCc5cccc(F)c5)c(Cl)c4)c3c2)o1 [Lapatinib] (partner 2 µM)
relative viability (A549; first compound 0.08 µM): 1.04 | relative viability (A549; first compound 0.253 µM): 1.23 | relative viability (A549; first compound 0.8 µM): 1.19 | relative viability (A549; first compound 2.53 µM): 0.87 | relative viability (A549; first compound 8 µM): 0.995 | relative viability (Calu-6; first compound 0.08 µM): 1.16 | relative viability (Calu-6; first compound 0.253 µM): 1.16 | relative viability (Calu-6; first compound 0.8 µM): 1.03 | relative viability (Calu-6; first compound 2.53 µM): 1.07 | relative viability (Calu-6; first compound 8 µM): 1.15 | relative viability (EBC-1; first compound 0.08 µM): 0.201 | relative viability (EBC-1; first compound 0.253 µM): 0.191 | relative viability (EBC-1; first compound 0.8 µM): 0.196 | relative viability (EBC-1; first compound 2.53 µM): 0.204 | relative viability (EBC-1; first compound 8 µM): 0.202 | relative viability (HCC-78; first compound 0.08 µM): 0.873 | relative viability (HCC-78; first compound 0.253 µM): 0.822 | relative viability (HCC-78; first compound 0.8 µM): 0.718 | relative viability (HCC-78; first compound 2.53 µM): 0.735 | relative viability (HCC-78; first compound 8 µM): 0.901 | relative viability (IA-LM; first compound 0.08 µM): 1.16 | relative viability (IA-LM; first compound 0.253 µM): 0.806 | relative viability (IA-LM; first compound 0.8 µM): 0.693 | relative viability (IA-LM; first compound 8 µM): 1.2 | relative viability (NCI-H1299; first compound 0.08 µM): 0.972 | relative viability (NCI-H1299; first compound 0.253 µM): 1 | relative viability (NCI-H1299; first compound 0.8 µM): 0.997 | relative viability (NCI-H1299; first compound 2.53 µM): 0.975 | relative viability (NCI-H1299; first compound 8 µM): 0.96 | relative viability (NCI-H1703; first compound 0.08 µM): 0.886 | relative viability (NCI-H1703; first compound 0.253 µM): 1.45 | relative viability (NCI-H1703; first compound 0.8 µM): 0.94 | relative viability (NCI-H1703; first compound 2.53 µM): 1.1 | relative viability (NCI-H1703; first compound 8 µM): 0.971 | relative viability (NCI-H2009; first compound 0.08 µM): 0.879 | relative viability (NCI-H2009; first compound 0.253 µM): 0.893 | relative viability (NCI-H2009; first compound 0.8 µM): 0.876 | relative viability (NCI-H2009; first compound 2.53 µM): 0.895 | relative viability (NCI-H2009; first compound 8 µM): 0.823 | relative viability (NCI-H460; first compound 0.08 µM): 1.13 | relative viability (NCI-H460; first compound 0.253 µM): 1.52 | relative viability (NCI-H460; first compound 0.8 µM): 1.22 | relative viability (NCI-H460; first compound 2.53 µM): 0.843 | relative viability (NCI-H460; first compound 8 µM): 1.19 | relative viability (NCI-H661; first compound 0.08 µM): 0.481 | relative viability (NCI-H661; first compound 0.253 µM): 0.412 | relative viability (NCI-H661; first compound 0.8 µM): 0.543 | relative viability (NCI-H661; first compound 2.53 µM): 0.464 | relative viability (NCI-H661; first compound 8 µM): 0.579

CCN(CC)CCCCNc1ncc2cc(-c3cc(OC)cc(OC)c3)c(NC(=O)NC(C)(C)C)nc2n1 + C[C@@H](Oc1cc(-c2cnn(C3CCNCC3)c2)cnc1N)c1c(Cl)ccc(F)c1Cl [Crizotinib] (partner 1 µM)
relative viability (A549; first compound 0.01 µM): 0.782 | relative viability (A549; first compound 0.03162 µM): 0.854 | relative viability (A549; first compound 0.1 µM): 0.961 | relative viability (A549; first compound 0.3162 µM): 0.805 | relative viability (A549; first compound 1 µM): 0.655 | relative viability (Calu-6; first compound 0.01 µM): 0.943 | relative viability (Calu-6; first compound 0.03162 µM): 0.784 | relative viability (Calu-6; first compound 0.1 µM): 0.899 | relative viability (Calu-6; first compound 0.3162 µM): 1.02 | relative viability (Calu-6; first compound 1 µM): 0.712 | relative viability (EBC-1; first compound 0.01 µM): 0.209 | relative viability (EBC-1; first compound 0.03162 µM): 0.189 | relative viability (EBC-1; first compound 0.1 µM): 0.242 | relative viability (EBC-1; first compound 0.3162 µM): 0.213 | relative viability (EBC-1; first compound 1 µM): 0.187 | relative viability (HCC-78; first compound 0.03162 µM): 0.318 | relative viability (HCC-78; first compound 0.1 µM): 0.347 | relative viability (HCC-78; first compound 0.3162 µM): 0.368 | relative viability (HCC-78; first compound 1 µM): 0.299 | relative viability (IA-LM; first compound 0.01 µM): 0.766 | relative viability (IA-LM; first compound 0.03162 µM): 0.629 | relative viability (IA-LM; first compound 0.1 µM): 1.02 | relative viability (IA-LM; first compound 0.3162 µM): 0.97 | relative viability (IA-LM; first compound 1 µM): 0.932 | relative viability (NCI-H1299; first compound 0.01 µM): 1 | relative viability (NCI-H1299; first compound 0.03162 µM): 0.912 | relative viability (NCI-H1299; first compound 0.1 µM): 1.02 | relative viability (NCI-H1299; first compound 0.3162 µM): 0.972 | relative viability (NCI-H1299; first compound 1 µM): 0.89 | relative viability (NCI-H1703; first compound 0.01 µM): 0.495 | relative viability (NCI-H1703; first compound 0.03162 µM): 0.584 | relative viability (NCI-H1703; first compound 0.1 µM): 0.986 | relative viability (NCI-H1703; first compound 0.3162 µM): 0.586 | relative viability (NCI-H1703; first compound 1 µM): 0.799 | relative viability (NCI-H2009; first compound 0.01 µM): 1.1 | relative viability (NCI-H2009; first compound 0.03162 µM): 1.08 | relative viability (NCI-H2009; first compound 0.1 µM): 1.13 | relative viability (NCI-H2009; first compound 0.3162 µM): 1.11 | relative viability (NCI-H2009; first compound 1 µM): 0.953 | relative viability (NCI-H460; first compound 0.01 µM): 1.15 | relative viability (NCI-H460; first compound 0.03162 µM): 0.934 | relative viability (NCI-H460; first compound 0.1 µM): 1.36 | relative viability (NCI-H460; first compound 0.3162 µM): 1.07 | relative viability (NCI-H460; first compound 1 µM): 0.797 | relative viability (NCI-H661; first compound 0.03162 µM): 1.03 | relative viability (NCI-H661; first compound 0.1 µM): 0.972 | relative viability (NCI-H661; first compound 0.3162 µM): 1.04 | relative viability (NCI-H661; first compound 1 µM): 1.17
